This is an account of results in PubChem BioAssay AID1259411 (Chemical Carcinogenesis Research Information System (CCRIS), 2018).

For the data set, the system named is rodent carcinogenicity bioassays, tumor incidence. Briefly: CCRIS carcinogenicity studies. Conditions: Dose: 0, Dose: 0. In a few lines: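 Archive of carcinogenicity, mutagenicity, tumor promotion and tumor inhibition results drawn from journals, NCI reports and other sources, expert-reviewed; covers 1985-2011 and is no longer updated.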

The source made the active and inactive calls. No rule for the calls is given here.

In the case of `NC(=O)Cc1c([O-])on[n+]1Cc1ccccc1`, the carcinogen call reads like this: (Species: MOUSE, Strain/Sex: DDD/FEMALE, Route: ORAL, 0.002, 0.01, 0.02% IN DRINKING WATER FOR 12 MO (STUDY DURATION: 12 MO), 0.002, 0.01, 0.02% IN DRINKING WATER FOR 12 MO (STUDY DURATION: 12 MO), Tumor Site: Type of Lesion: LIVER: HEPATOCELLULAR CARCINOMA) “active; positive”; (Species: MOUSE, Strain/Sex: DDD/MALE, Route: ORAL, 0.02% IN DRINKING WATER FOR 12 MO (STUDY DURATION: 12 MO)) “inactive; negative”; (Species: RAT, Strain/Sex: DONRYU/FEMALE, Route: ORAL, 60, 200, 400 PPM IN DRINKING WATER FOR 41 WK (STUDY DURATION: 104 WK), 60, 200, 400 PPM IN DRINKING WATER FOR 41 WK (STUDY DURATION: 104 WK), Tumor Site: Type of Lesion: LIVER: TUMOR) “active; positive”; (Species: RAT, Strain/Sex: DONRYU/MALE, Route: ORAL, 20 PPM IN DIET FOR 104 WK (STUDY DURATION: 104 WK)) “inactive; negative”; (Species: RAT, Strain/Sex: DONRYU/MALE, Route: ORAL, 60, 200 PPM IN DIET FOR 15 WK (STUDY DURATION: 104 WK), 60, 200 PPM IN DIET FOR 15 WK (STUDY DURATION: 104 WK), Tumor Site: Type of Lesion: LIVER: TUMOR) “active; positive”; (Species: RAT, Strain/Sex: DONRYU/MALE, Route: ORAL, 60 PPM IN DRINKING WATER FOR 41 WK (STUDY DURATION: 104 WK), Tumor Site: Type of Lesion: LIVER: TUMOR) “active; positive”.
Consider `COCC(=O)N(c1c(C)cccc1C)C(C)C(=O)OC` (centres undefined), for which the carcinogen call is “inactive; negative” (Species: Mouse, Strain/Sex: ICI Alderly Park (Swiss strain origin)/Female (60/Group), Route: Oral, 50, 250, 1250 ppm of 93.8-95.2% metalaxyl in diet for 104 wk, study duration 104 wk, 50, 250, 1250 ppm of 93.8-95.2% metalaxyl in diet for 104 wk, study duration 104 wk); “inactive; negative” (Species: Mouse, Strain/Sex: ICI Alderly Park (Swiss strain origin)/Male (60/Group), Route: Oral, 50, 250, 1250 ppm of 93.8-95.2% metalaxyl in diet for 104 wk, study duration 104 wk, 50, 250, 1250 ppm of 93.8-95.2% metalaxyl in diet for 104 wk, study duration 104 wk); “active; positive” (Species: Rat, Strain/Sex: CD (Sprague-Dawley derived)/Female (70/Group), Route: Oral, 50, 250, 1250 ppm of 93% metalaxyl in diet for 105 wk, study duration 105 wk, 50, 250, 1250 ppm of 93% metalaxyl in diet for 105 wk, study duration 105 wk, Tumor Site: Type of Lesion: Thyroid: follicular cell adenoma); “inactive; negative” (Species: Rat, Strain/Sex: CD (Sprague-Dawley derived)/Male (70/Group), Route: Oral, 50, 250, 1250 ppm of 93% metalaxyl in diet for 105 wk, study duration 105 wk, 50, 250, 1250 ppm of 93% metalaxyl in diet for 105 wk, study duration 105 wk).
Take `ClC(Cl)Br`: the carcinogen call by setting is: (Species: FISH, Strain/Sex: ORYZIAS LATIPES/FEMALE, Route: IMMERSION, 0.018, 0.143, 1.424 MG/L AQUEOUS SOLUTION FOR 6 MO (STUDY DURATION: 6 MO), 0.018, 0.143, 1.424 MG/L AQUEOUS SOLUTION FOR 6 MO (STUDY DURATION: 6 MO)) “inactive; negative”; (Species: FISH, Strain/Sex: ORYZIAS LATIPES/FEMALE, Route: IMMERSION, 0.018, 0.143, 1.424 MG/L AQUEOUS SOLUTION FOR 9 MO (STUDY DURATION: 9 MO), 0.018, 0.143, 1.424 MG/L AQUEOUS SOLUTION FOR 9 MO (STUDY DURATION: 9 MO)) “inactive; negative”; (Species: FISH, Strain/Sex: ORYZIAS LATIPES/MALE, Route: IMMERSION, 0.018, 0.143, 1.424 MG/L AQUEOUS SOLUTION FOR 6 MO (STUDY DURATION: 6 MO), 0.018, 0.143, 1.424 MG/L AQUEOUS SOLUTION FOR 6 MO (STUDY DURATION: 6 MO)) “inactive; negative”; (Species: FISH, Strain/Sex: ORYZIAS LATIPES/MALE, Route: IMMERSION, 0.018, 0.143, 1.424 MG/L AQUEOUS SOLUTION FOR 9 MO (STUDY DURATION: 9 MO), 0.018, 0.143, 1.424 MG/L AQUEOUS SOLUTION FOR 9 MO (STUDY DURATION: 9 MO)) “inactive; negative”; (Species: MOUSE, Strain/Sex: B6C3F1/FEMALE, Route: GAVAGE, 75, 150 MG/KG IN CORN OIL 5D/WK FOR 102 WK (STUDY DURATION: 105 WK), 75, 150 MG/KG IN CORN OIL 5D/WK FOR 102 WK (STUDY DURATION: 105 WK), Tumor Site: Type of Lesion: LIVER: HEPATOCELLULAR ADENOMA, LIVER: HEPATOCELLULAR CARCINOMA, LIVER: HEPATOCELLULAR ADENOMA OR CARCINOMA, Tumor Site: Type of Lesion: LIVER: HEPATOCELLULAR ADENOMA, LIVER: HEPATOCELLULAR CARCINOMA, LIVER: HEPATOCELLULAR ADENOMA OR CARCINOMA) “active; positive”; (Species: MOUSE, Strain/Sex: B6C3F1/MALE, Route: GAVAGE, 25, 50 MG/KG IN CORN OIL 5D/WK FOR 102 WK (STUDY DURATION: 105 WK), 25, 50 MG/KG IN CORN OIL 5D/WK FOR 102 WK (STUDY DURATION: 105 WK), Tumor Site: Type of Lesion: KIDNEY: TUBULAR CELL ADENOMA OR ADENOCARCINOMA) “active; positive”. Besides, the carcinogen call is, setting by setting: (Species: MOUSE, Strain/Sex: B6C3F1/MALE, Route: ORAL, 8.1, 27.2, 43.4 MG/KG/D IN 0.25% EMULPHOR IN DRINKING WATER FOR 100 WK (STUDY DURATION: 100 WK), 8.1, 27.2, 43.4 MG/KG/D IN 0.25% EMULPHOR IN DRINKING WATER FOR 100 WK (STUDY DURATION: 100 WK)) “inactive; negative”; (Species: Mouse, Strain/Sex: B6C3F1/female, Route: Oral, 175, 350, 700 mg/L (about 0, 9, 18, and 36 mg/kg, respectively) in drinking water for 104 wk, 175, 350, 700 mg/L (about 0, 9, 18, and 36 mg/kg, respectively) in drinking water for 104 wk) “inactive; negative”; (Species: RAT, Strain/Sex: F344/FEMALE, Route: GAVAGE, 50, 100 MG/KG IN CORN OIL 5D/WK FOR 102 WK (STUDY DURATION: 104 WK), 50, 100 MG/KG IN CORN OIL 5D/WK FOR 102 WK (STUDY DURATION: 104 WK), Tumor Site: Type of Lesion: LARGE INTESTINE: ADENOMATOUS POLYP, LARGE INTESTINE: ADENOCARCINOMA, LARGE INTESTINE: ADENOMATOUS POLYP OR ADENOCARCINOM, Tumor Site: Type of Lesion: LARGE INTESTINE: ADENOMATOUS POLYP, LARGE INTESTINE: ADENOCARCINOMA, LARGE INTESTINE: ADENOMATOUS POLYP OR ADENOCARCINOM) “active; positive”; (Species: RAT, Strain/Sex: F344/MALE, Route: GAVAGE, 50, 100 MG/KG IN CORN OIL 5D/WK FOR 102 WK (STUDY DURATION: 104 WK), 50, 100 MG/KG IN CORN OIL 5D/WK FOR 102 WK (STUDY DURATION: 104 WK), Tumor Site: Type of Lesion: LARGE INTESTINE: ADENOCARCINOMA, LARGE INTESTINE: ADENOMATOUS POLYP, LARGE INTESTINE: ADENOMATOUS POLYP OR ADENOCARCINOM, Tumor Site: Type of Lesion: LARGE INTESTINE: ADENOCARCINOMA, LARGE INTESTINE: ADENOMATOUS POLYP, LARGE INTESTINE: ADENOMATOUS POLYP OR ADENOCARCINOM) “active; positive”; (Species: RAT, Strain/Sex: F344/MALE, Route: ORAL, 3.9, 20.6, 36.3 MG/KG/D IN 0.25% EMULPHOR IN DRINKING WATER FOR 100 WK (STUDY DURATION: 100 WK), 3.9, 20.6, 36.3 MG/KG/D IN 0.25% EMULPHOR IN DRINKING WATER FOR 100 WK (STUDY DURATION: 100 WK), Tumor Site: Type of Lesion: LIVER: HEPATOCELLULAR ADENOMA, HEPATOCELLULAR ADENOMA OR HEPATOCELLULAR CARCINOMA) “active; positive”; (Species: RAT, Strain/Sex: WISTAR/FEMALE, Route: ORAL, 1.2 ML/L (15 MILLIMOLAR) IN DRINKING WATER FOR 72 WK THEN DOSE HALVED FOR DURATION OF STUDY (STUDY DURATION: LIFETIME, Tumor Site: Type of Lesion: LIVER: NEOPLASTIC NODULES, LYMPHOID TISSUE: LYMPHOSARCOMA) “active; positive”. Moreover, the carcinogen call reads like this: (Species: RAT, Strain/Sex: WISTAR/MALE, Route: ORAL, 1.2 ML/L (15 MILLIMOLAR) IN DRINKING WATER FOR 72 WK THEN DOSE HALVED FOR DURATION OF STUDY (STUDY DURATION: LIFETIME) “inactive; negative”; (Species: Rat, Strain/Sex: F344/N/male, Route: Oral, 175, 350, 700 mg/L (about 0, 6, 12, and 25 mg/kg, respectively) in drinking water for 104 wk, 175, 350, 700 mg/L (about 0, 6, 12, and 25 mg/kg, respectively) in drinking water for 104 wk) “inactive; negative”.
